Our source for the Selectivity ratio, Kd and Activity values is ChEMBL document CHEMBL5528022, “Discovery of a brain-permeable bromodomain and extra terminal domain (BET) inhibitor with selectivity for BD1 for the treatment of multiple sclerosis” (Eur J Med Chem, 2024).

The nature of assay [1]: Selectivity ratio of Kd for binding affinity to BRD4 BD2 (unknown origin) by MST assay to Kd for binding affinity to BRD4 BD1 (unknown origin) by MST assay.
For assay [2], the target named is T1, Bromodomain-containing protein 4 (Homo sapiens, UniProt O60885). Put plainly: Binding affinity to BRD4 BD2 (unknown origin) expressed in Escherichia coli BL21 (DE3) at 1:1 protein:compound ratio by MST assay.
The target of assay [3] is T1, Bromodomain-containing protein 4. The experiment in a line: Binding affinity to BRD4 BD1 (unknown origin) expressed in Escherichia coli BL21 (DE3) at 1:1 protein:compound ratio by MST assay.
Assay [4] deals with Mus musculus. Put plainly: Anti-inflammatory activity in complete Freund's adjuvant/MOG (35 to 55 residues)/pertussis toxin-induced experimental autoimmune encephalomyelitis C57BL/6 mouse model assessed as appearance of normal myelin structure at 30 mg/kg, ip bid administered 6 days post immunization and measured every 3 days for 28 days post immunization by Luxol fast blue staining based bright field fluorescence microscopic analysis. Format: functional, organism-based. Conditions: time 22.0 day.

In assay [5] the test system is Mus musculus. The experiment in a line: Anti-inflammatory activity in complete Freund's adjuvant/MOG (35 to 55 residues)/pertussis toxin-induced experimental autoimmune encephalomyelitis C57BL/6 mouse model assessed as reduction in TNF-alpha level at 30 mg/kg, ip bid administered 6 days post immunization and measured every 3 days for 28 days post immunization. Format: functional, organism-based. Conditions: time 22.0 day.

In assay [6] the test system is Mus musculus. Put plainly: Anti-inflammatory activity in complete Freund's adjuvant/MOG (35 to 55 residues)/pertussis toxin-induced experimental autoimmune encephalomyelitis C57BL/6 mouse model assessed as reduction in clinical scores at 30 mg/kg, ip bid administered 6 days post immunization and measured every 3 days for 28 days post immunization. Format: functional, organism-based. The note with it: time 22.0 day.

The subject of assay [7] is Mus musculus. The experiment in a line: Anti-inflammatory activity in complete Freund's adjuvant/MOG (35 to 55 residues)/pertussis toxin-induced experimental autoimmune encephalomyelitis C57BL/6 mouse model assessed as myelin density at 60 mg/kg, ip bid administered 6 days post immunization and measured every 3 days for 28 days post immunization by Luxol fast blue staining based bright field fluorescence microscopic analysis. Format: functional, organism-based. Conditions: time 22.0 day.

Assay [8] relates to Mus musculus. The experiment in a line: Anti-inflammatory activity in complete Freund's adjuvant/MOG (35 to 55 residues)/pertussis toxin-induced experimental autoimmune encephalomyelitis C57BL/6 mouse model assessed as reduction in IL-6 level at 30 mg/kg, ip bid administered 6 days post immunization and measured every 3 days for 28 days post immunization. Format: functional, organism-based. The note with it: time 22.0 day.

The test system of assay [9] is Mus musculus. The experiment in a line: Anti-inflammatory activity in complete Freund's adjuvant/MOG (35 to 55 residues)/pertussis toxin-induced experimental autoimmune encephalomyelitis C57BL/6 mouse model assessed as change in cumulative scores at 30 mg/kg, ip bid administered 6 days post immunization and measured every 3 days for 28 days post immunization. Format: functional, organism-based. Conditions: time 22.0 day.

A further assay has as its system Microglia. The experiment in a line: Antiinflammatory activity against LPS induced neonatal rat cerebral cortex microglia by immunofluorescence assay. It is filed as functional, cell-based.

Each structure is given as a SMILES string. Activity calls are given as the source filed them. The rule behind the calls is not given here.

In the case of `Cc1nn(C)c(C)c1-c1cncc(-c2ccnc3nc[nH]c23)c1`, in assay [1], the Selectivity ratio was 48. In addition, the Kd in assay [2] was found to be 30000 nM; in assay [3] it was 620 nM.

On to `Cc1nn(CC2CCCC2)c(C)c1-c1cncc(-c2ccnc3nc[nH]c23)c1`, for which the Selectivity ratio in assay [1] turned out to be 13. Besides, the results for the dissociation constant (Kd) in assay [2] and in [3] were 13000 nM and 990 nM, respectively.

Regarding `CCn1nc(C)c(-c2cncc(-c3ccnc4nc[nH]c34)c2)c1C`, the Selectivity ratio in [1] was 34. The equilibrium dissociation constant (Kd) turned out to be 16000 nM in [2] and 480 nM in assay [3].

On to `Cn1cc(-c2cncc(-c3ccnc4nc[nH]c34)c2)c(C(F)(F)F)n1`, for which the Selectivity ratio in [1] turned out to be 35. For the same compound, the Kd in assay [2] was determined as 11000 nM; in assay [3], 330 nM.

With `Cc1nn(C)c(C)c1-c1cc2c(c(-c3ccnc4nc[nH]c34)c1)OCC2`, the Selectivity ratio in assay [1] amounted to 17. The Kd worked out at 3100 nM in assay [2] and 180 nM in assay [3].

For `Cc1nn(CC2CCC2)c(C)c1-c1cncc(-c2ccnc3nc[nH]c23)c1`, the Selectivity ratio in assay [1] was 51. Besides, the figures for the Kd in [2] and in assay [3] were 13000 nM and 250 nM, respectively.

Take `COC(=O)/C=C/C(=O)OC`: the result in the assay on Mus musculus [4], with Mus musculus [5], in the assay with Mus musculus [6], in the assay with Mus musculus [7], with Mus musculus [8] and in the assay with Mus musculus [9] was Active. Also, in the assay on Microglia, the result was Active.

In the case of `Cc1nn(C)cc1-c1cncc(-c2ccnc3nc[nH]c23)c1`, in [1], the Selectivity ratio worked out at 42. Moreover, the dissociation constant (Kd) stood at 28000 nM in [2] and 660 nM in assay [3].

Consider `Cc1nn(CC2CCCCC2)c(C)c1-c1cncc(-c2ccnc3nc[nH]c23)c1`, for which, in [1], the Selectivity ratio came out at 30. Besides, the Kd was 9300 nM in [2] and 300 nM in [3].

Consider `Cc1c(-c2cncc(-c3ccnc4nc[nH]c34)c2)cnn1C`, for which, in assay [1], the Selectivity ratio is 46. Further, the results for the Kd in [2] and in assay [3] were 31000 nM and 690 nM, respectively.

In the case of `Cc1c(-c2cnccc2-c2ccnc3nc[nH]c23)cnn1C`, the Selectivity ratio in [1] is 73. Further, the Kd in assay [2] worked out at 178000 nM; in assay [3], 2400 nM.
